We go through three compounds from PMC4976923, “Potent Allosteric Dengue Virus NS5 Polymerase Inhibitors: Mechanism of Action and Resistance Profiling” (PLoS Pathogens, 2016).

A short description of data set [1]: in vitro. In kind it is cell-based. The protocol:
(§1) A549, BHK-21 and Huh7 cells bearing stable DENV2 sub-genomic replicon or transiently electroporated DENV2-NGC replicon or infectious virus cDNAs were seeded into 384-well microplate (3,000 cells per well). After over-night incubation at 37°C with 5% CO2, the cells were treated with 2-fold serially diluted compounds, starting from 20 or 50 μM. At 48 hr of post-incubation, renilla luciferase activities were measured with the ViviRen live-cell substrate (Promega, USA) according to the manufacturer’s protocol. CellTiter-Glo reagent (Promega, USA) was then added to determine cytotoxic effects of compounds. For the HCV replicon assay, Huh-7.5 cells harboring the HCV replicon were seeded into a 96-well microplate (20,000 cells per well). At 48 hr after compound treatment, cells were assayed for firefly luciferase activity by using a Bright-Glo luciferase assay (Promega, USA). NITD-008, a nucleoside inhibitor of DENV and HCV was added as a control.

The subject of data set [2] is DENV2-NGC Ren-LUC Replicon in A549. Briefly: Stable A549 DENV2-NGC renilla luciferase replicon assay. The settings on record: Dengue virus, 48 hr. In kind it is cell-based. On the procedure: as §1
1 containing 2 % FBS, 1mM L-glutamine and 1 % penicillin-streptom ycin and incubated over-
At 24 h post-seeding, cells were inf ected with DENV1-4 at
3 multiplicity of infection [MOI] of 0.3-1 (DENV1, strain MY97- 10245, MOI = 0.5; DENV2,
5 MY01-22713; MOI = 0.5) and treated immediatel y with 10- point, 3-fold serially diluted
6 compounds (at final 0.5% DMSO concent ration; 4). At 48 h post-infection , cells wer e fix ed
8 DENV envelope protein ) and DRAQ5 (for nucl ear DNA) . Quantifications of DENV
9 envelope protein were determined using the Opera high content imaging s ystem and anal ysis
10 software (Perkin Elmer, USA). Calculation of EC50 values were perfo rmed using Helios
11 software p ackage (Nov ar tis, Basel).
13 Compound testing in DENV2 and HCV sub -genomic replicon assays. A549, BHK -21 and
14 Huh7 DENV2 sub- geno mic replicon cells were seed ed at a d ensit y o f 3,000 cells per w ell
15 in a 384-well microplate. After incubation at 37 °C with 5 % CO2 overnight, the cells were […]
17 µM concentrations. At 48 hr of post-incubation, r enilla luciferas e activities were measured […]
For orientation: In antiviral work, replicon cells carry a viral genome segment that copies itself.

The subject of data set [3] is DENV2 replicon cells. The data set is described as follows: DENV2 replicon cells from HuH-7, BHK-21 and A549 backgrounds, range. It counts as cell-based. The note with it: Dengue virus, range across cell backgrounds.
In data set [4] the test system is DENV2-NGC Ren-LUC Replicon in HuH-7. Briefly: Stable HuH-7 DENV2-NGC renilla luciferase replicon assay. The settings on record: read-out: HuH-7 DENV Replicon, DENV2, EC50. In kind it is cell-based.
The subject of data set [5] is Human rhinovirus (7 serotypes). The data set is described as follows: Human rhinovirus cytopathic inhibition in HeLa cells. It counts as cell-based. The note with it: Rhinovirus A, 120 h, cytopathic inhibition over 5 days. (In general: Protection from cytopathic effect is a common read-out in antiviral testing.)
The subject of data set [6] is DENV3 strain MY05-34640. The note with it: A549; 48 hr; read-out: DENV3 HCI, EC50 (converted); cited from earlier work.
For data set [7], the system named is DENV2-NGC virus L512V/E802D. It counts as cell-based. The note with it: A549, MOI = 0.2; 48 hr; plaque assay.
The subject of data set [8] is DENV2-NGC virus E802D. In kind it is cell-based. The settings on record: A549, MOI = 0.2; 48 hr; plaque assay.
Data set [9] relates to DENV1, strain MY97-10245. The note with it: A549; 48 hr; read-out: DENV1 HCI, EC50; cited from earlier work.
Data set [10] concerns DENV2-NGC virus L512V. It counts as cell-based. The settings on record: A549, MOI = 0.2; 48 hr; plaque assay.
Data set [11] deals with clinical DENV2 isolate MY97-10340. The settings on record: A549, 48 hr, read-out: DENV2 HCI, EC50 (converted); cited from earlier work.
Data set [12] has as its target T1, DENV2 FL NS5 L511V/E802D (Dengue virus type 2, UniProt P14340, E3293D/L3003V).
T1 construct: Recombinant DENV2 (A, C) and DENV4 (B, D) FL NS5 proteins bearing single or double amino acid changes; made in house
In kind it is binding. The settings on record: 50 µM compound; for Protein melting temperature, Tm, DENV2 FL NS5 L511V/E802D: DMSO 35.

The mark [13] stands for this setting: human, HuH-7 (DENV2 replicon cells), 48 hr, ATP levels.
The mark [14] stands for this setting: human, 2 days, read-out: CC50, A549.
Where [15] appears, read: Dengue virus, DENV2, Huh-7, 48 h.
[16] abbreviates: hamster, 2 days, read-out: CC50, BHK-21.

Where two headings read alike, the source gives them in different places.

For the compound `COc1cccc(S(=O)(=O)NC(=O)c2cc(-c3ccc(C#CCO)s3)c(OC)cc2C)c1` [Compound 26i], the cytotoxic concentration (CC50) in [1] (setting [13]) and in [1] (setting [14]) was > 50 µM throughout. Besides, the concentration giving a half-maximal response (EC50) – broadly, the concentration needed to bring the measured effect to its halfway point – in data set [2] is 15.4 µM; in [3], 12 to 15 µM; in data set [4] (setting [15]) it was 12.1 µM.

With `COc1cccc(S(=O)(=O)NC(=O)c2cc(-c3ccc(C#CCO)s3)c(OC)cc2OC)c1` [Compound 27], the half-maximal effective concentration (EC50) in data set [5] was > 50 µM; in data set [2], 2.3 µM; in data set [6], 1.8 ± 0.5 µM; in data set [7], 2.32 µM; in data set [8], 1.42 µM; in data set [9], 1.8 ± 0.1 µM. In addition, the 50% effective concentration (EC50) in data set [3] was 1 to 5 µM; in [4] (setting [15]) it was 3.9 ± 0.62 µM; in data set [10], 2.2 µM; in data set [11], 2.3 µM. The CC50 (as a rule, the concentration that lowers cell viability or growth by half) is > 50 µM in [1] (setting [16]), > 100 µM in [1] (setting [13]) and > 50 µM in data set [1] (setting [14]). The “Tm change compared to DMSO control, DENV2 FL NS5 L511V/E802D” value in data set [12] was determined as 0 °C. The “Protein melting temperature, Tm, DENV2 FL NS5 L511V/E802D” value in [12] was determined as 35 °C.

Regarding `COc1cc(OC)c(-c2ccc(C#CCO)s2)cc1C(=O)NS(=O)(=O)c1cccc2cccnc12` [Compound 29], the EC50 in data set [5] was > 50 µM; in data set [2], 2.8 µM; in data set [6], 3.8 µM; in [7], 7.01 µM; in [8], 5.8 µM; in data set [9], 6.3 ± 0.9 µM. Further, the concentration for a half-maximal effect (EC50) in [3] is 1 to 5 µM; in data set [4] (48 hr), 1.9 ± 0.2 µM; in data set [4] (setting [15]) it was ~2 µM; in [10], 6 µM; in data set [11], 14.1 µM. Further, the CC50 in [1] (setting [16]), in data set [1] (setting [13]) and in [1] (setting [14]) was > 50 µM each time. In addition, in data set [12], the “Tm change compared to DMSO control, DENV2 FL NS5 L511V/E802D” value turned out to be 0.5 °C. Moreover, the “Protein melting temperature, Tm, DENV2 FL NS5 L511V/E802D” value in data set [12] came out at 35.5 °C.
